Here are results for two compounds from publication PMC11593623, “D299T Mutation in CYP76F14 Led to a Decrease in Wine Bouquet Precursor Production in Wine Grape” (Genes, 2024).

This assay deals with T1, 'L35' VvCYP76F14 (Vitis vinifera, UniProt A0A1B2ZBX8, S46N/I107T/K111N/Q175R/V222L/N286S/T325K/G378E/A380T/D383E/A386T).
T1 construct: 499-residue CDS, synthesized (GenScript), E. coli BL21(DE3); purification and tags not described; Arabidopsis CPR ATR1 as redox partner
Nature of the assay: substrate remnant by UPLC-MS. Type of assay: cell-based. The settings on record: Arabidopsis CPR ATR1 as redox partner; 26 °C, 1 h; recombinant E. coli protein, purification not described.

T1 sequence (A0A1B2ZBX8 entry or part of it with the stated changes): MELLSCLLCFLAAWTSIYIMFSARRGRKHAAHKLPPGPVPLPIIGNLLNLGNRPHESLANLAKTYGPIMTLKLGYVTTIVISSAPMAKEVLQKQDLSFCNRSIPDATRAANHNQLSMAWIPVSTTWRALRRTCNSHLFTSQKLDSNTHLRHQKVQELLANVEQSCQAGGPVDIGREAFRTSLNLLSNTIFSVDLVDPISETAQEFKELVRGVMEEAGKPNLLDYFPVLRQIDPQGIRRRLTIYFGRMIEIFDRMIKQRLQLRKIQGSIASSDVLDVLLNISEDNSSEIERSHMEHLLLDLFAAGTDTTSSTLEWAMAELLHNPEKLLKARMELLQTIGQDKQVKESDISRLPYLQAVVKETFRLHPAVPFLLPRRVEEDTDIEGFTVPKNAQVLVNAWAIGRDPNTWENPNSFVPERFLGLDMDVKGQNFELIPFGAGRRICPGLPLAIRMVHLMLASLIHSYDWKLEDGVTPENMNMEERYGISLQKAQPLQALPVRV

As to `C=CC(C)(O)CC/C=C(\C)CO` (centres unmarked) [(E)-8-hydroxylinalool], the “substrate remnant by UPLC-MS” value is “‘L35’ VvCYP76F14 exhibited lower remnants of linalool and (E)-8-hydroxylinalool substrates”. As to `C=CC(C)(O)CCC=C(C)C` (centres unmarked) [linalool], the “substrate remnant by UPLC-MS” value is “‘L35’ VvCYP76F14 exhibited lower remnants of linalool and (E)-8-hydroxylinalool substrates”.
